# Laboratory results from a melting point compilation (Tetko et al.; mined from patent text by program, amines drawn as free bases though some values may be those of a salt).
row,melting point [°C],Compound
1,170 to 172,OCCc1ccc(Nc2ncc3c(n2)-c2ccccc2C(c2ccc(F)c(F)c2)C3)cc1 (centres undefined)
2,68 to 69,COc1ccc(COc2c(OC)cc(C=C(C(=O)OC(C)C)P(=O)(OC)OC)cc2OC)cc1
3,209 to 210,COCCOc1ccc(NC=C(C#N)C(=O)Nc2cc(OC)c(Cl)cc2Cl)cc1I
4,157 to 159,CN(C)CC#Cc1cc(CC2CCOCC2)cc2c(=O)c(C(=O)NCc3ccc(Cl)cc3)cn(C)c12
5,66 to 68,Cc1onc(-c2cccc(Cl)c2)c1CO
6,140,"CC(NC(=O)C1CC(=O)c2cc(F)ccc2O1)c1ccccc1 (single isomer, unassigned; (+))"
7,318 to 320,CCC1CCc2[nH]cc3c(=O)n(-c4ccc(Cl)cc4)nc-3c2C1 (centres undefined)
8,58 to 59,CCCc1c(OCCCCCOc2cc(OCCCC(=O)OC)ccc2CCC(=O)OC)ccc2c1OCCC2=O
9,100 to 101,O=C(Nc1ccc(F)cc1)N1CC=CCN1
10,114 to 115,COc1cc2c(cc1OCc1ccccc1)C(C#N)(Sc1ccc(Cl)cc1)C2 (centres undefined)
11,137 to 138,COC(=O)C(C)(C)Cc1ccc2oc(-c3ccc4ccc(Cl)cc4n3)cc2c1
12,93 to 95,COc1cc(OC)c([N+](=O)[O-])cc1C(=O)CCCCCl
13,225,CCCCCCCCCCNc1c(Nc2ccc(CCCNC[C@H](O)COc3cccc4[nH]c5ccccc5c34)cc2)c(=O)c1=O
14,156,CSC1=Nc2ccc(C(=O)c3cccnc3)cc2CN1
15,118 to 121,CNC(=O)C(=NOC)c1ccccc1Oc1cccc(-c2ccc(Cl)cc2)c1
16,159,Nc1ccsc1[N+](=O)[O-]
17,60 to 62,CCOC(=O)COCCc1cc2cc(Cl)ccc2n1S(=O)(=O)c1ccccc1
18,234 to 235,COc1ccc(-c2cc(-c3ccccc3)[nH]c2C(=O)Nc2ccc(C(=O)NO)cc2)cc1
19,106 to 108,CS(=O)(=O)OCCCCC1C(=O)Nc2ccc(F)cc21 (centres undefined)
20,204,c1ccc(P(c2ccccc2)c2c3ccccc3cc3ccccc23)cc1
21,168 to 170,O=C(NNS(=O)(=O)c1ccccc1)c1ccc(Cl)cc1Cl
22,158 to 160,Cc1cc(C2=NN(C(=O)C=CCC(=O)O)C(C)Cc3cc4c(cc32)OCO4)ccc1[N+](=O)[O-] (centres undefined)
23,153 to 155,Cc1ccc(S(=O)(=O)O[C@H](C)C(=O)N2C(=O)N(C)C[C@H]2C(=O)OCc2ccccc2)cc1
24,> 300,O=C(O)c1c(-c2cccc([N+](=O)[O-])c2)oc2ncnc(O)c12

row,melting point [°C],Compound
1,31 to 33,Cc1ccc(C(F)(F)F)cc1[N+](=O)[O-]
2,244 to 245,Cc1c(S(=O)(=O)c2ccc(=O)[nH]n2)oc2ccc(C(F)(F)F)cc12
3,209 to 211,CC(C(=O)O)n1nnc2ccc(Oc3nn(C)c(C(F)(F)F)c3Cl)cc21 (centres undefined)
4,78 to 80,COC(=O)Cc1cc(Cl)c2c(c1)CCC(c1ccccc1)N2C (centres undefined)
5,193 to 195,COc1ccc(C(=O)Nc2ccccc2)cc1NCc1ccc(OC(C)=O)cc1
6,220 to 226,N#Cc1cnc2c(=O)c3ccccc3oc2c1
7,210 to 220,Cc1ccnc(C(=O)c2[nH]c3cc(C(F)(F)F)ccc3c2CC(=O)O)c1
8,50 to 55,CCC(C)(Oc1ccc(-c2ccccc2)cc1OC)C(=O)O (centres undefined)
9,140 to 141,COC(=O)c1cc(S(=O)(=O)N=CN(C)C)ccc1Cl
10,67 to 69,COc1ccc2c(c1)CC(O)C2 (centres undefined)
11,204 to 206,COc1cc2ncnc(NC3=CC(=O)C(N(C)c4ccccc4)=CC3=O)c2cc1OC
12,172 to 174,C#CCn1nc(-c2cc(C(C)(C)C)c(O)c(C(C)(C)C)c2)c2cccnc21
13,142 to 147,COc1ccc(-c2ccc(NC(=O)OC(C)(C)C)cc2)cc1
14,230,CNc1ncnc2c(NC3OC(CO)C(O)C3O)ncnc12 (centres undefined)
15,205 to 210,Cn1ccnc1Sc1ccc(Nc2c(C#N)cnc3cc(/C=C/CCN4CCCCC4)ccc23)cc1Cl
16,65 to 67,Cc1ccc(CCOCC(=O)O)cc1
17,209 to 210,Nc1nc(Br)nc2c1ncn2C1OC(CO)C(O)C1F (centres undefined)
18,90 to 91,CCCCCCCCCCCCCCCCNC(=O)c1cc(OCCN=C=S)c2ccccc2c1O
19,163 to 165,CCN1CCN(Cc2ccc(COc3cccc4c3CN(C3CCC(=O)NC3=O)C4=O)cc2)CC1=O (centres undefined)
20,108 to 112,CCOC(=O)c1cc(-n2c(=O)c3c(n(C)c2=O)CCCC3)ccc1Cl
21,237 to 239,O=S(=O)(CC(F)(F)F)NC(c1ccc(Cl)c2nc3n(c12)CCCN3c1c(Cl)cc(Cl)cc1Cl)C(F)(F)F (centres undefined)
22,148,COc1ccc2c(c1)CNCC(=O)N2
23,105 to 106,CC(C)c1nn(-c2ccc(C#N)cn2)cc1CCCO
24,119 to 120,O=C(O)c1sccc1C(F)F

row,melting point [°C],Compound
1,160,O=CN(O)C(CS(=O)(=O)c1ccc(-c2ccc(C(F)(F)F)cc2)cc1)c1ccc2c(c1)OCO2 (centres undefined)
2,82,COc1ccc(-c2nc(CCCCCC(C)(C)c3nnn[nH]3)oc2-c2ccc(OC)cc2)cc1
3,92.5 to 95,CC(C)(C)c1cc(SCCC(=O)N2CCN(Cc3ccccc3)CC2)cc(C(C)(C)C)c1O
4,179 to 181,Cc1c(NC(=O)C(CS)Cc2ccccc2)cccc1C(=O)O (centres undefined)
5,187 to 188,CCn1nnc(Cc2ccc(NC(=O)/C=C/c3cnn(C)c3-c3ccc(F)cc3)cc2)n1
6,168 to 172,C[C@]1(CN2CCCc3ccccc32)Cn2cc([N+](=O)[O-])nc2O1
7,133 to 134,COCCN(C)c1nnc(-c2ccc(-c3ccccc3)nc2)n1-c1cccc2nonc12
8,176 to 177,CCOC(=O)c1cccc(-n2cc(-c3ccccc3)c3c(N)ncnc32)c1
9,240 to 242,CCNC(=O)NCCc1cccc(-c2nc(=O)c3ccccc3s2)n1
10,74 to 77,CCCC1(S(=O)(=O)CCC(=O)OC)c2ccccc2-c2ccccc21
11,92,COC(=O)C1CC(O)CN1C(=O)c1ccc(OC)cc1 (centres undefined)
12,237 to 238,CC(C)Cn1c(=O)n(C)c(=O)c2c(Sc3nnc[nH]3)c(Cc3csc4ccccc34)sc21
13,57 to 58,Fc1ccc(Cn2ccc3cc(Br)ccc32)cc1
14,65 to 66,COc1cc(N)c2nccc(C)c2c1OCCCCCc1ccccc1
15,103 to 105,COc1ccnc(CO)c1Cl
16,182 to 183,COc1c(-c2cc3c(s2)C(O)CC(C)(C)C3)ccc2c(=O)c(C(=O)O)cn(C3CC3)c12 (centres undefined)
17,308 to 311,CC(C)C(C)NC1=NS(=O)(=O)c2cc([N+](=O)[O-])ccc2N1 (centres undefined)
18,189 to 193,CC(=O)Oc1cccc2c1CCNC2=O
19,172 to 173,CCc1ccc(Cn2c(C)nc3ccc(C(=O)OC)nc32)c(Cl)c1
20,190,COc1cc(OC)nc(NC(=O)NS(=O)(=O)Nc2c(C)csc2C)n1
21,116,COc1ccc(C(=O)c2ccc([N+](=O)[O-])c(CO)c2)cc1
22,208 to 209,O=C1N(O)CCC12CCOc1ccc(F)cc12 (centres undefined)
23,111 to 112,COCC(Oc1ccc(-n2c(C)nc3cc(C(F)(F)F)ccc32)cc1)C(=O)O (centres undefined)
24,223 to 225,O=C(Oc1cc([N+](=O)[O-])ccc1[N+](=O)[O-])c1cc2ccccc2oc1=O

row,melting point [°C],Compound
1,188 to 189,NC(=O)NNC1=NC=Cc2ccccc2C1
2,58 to 59,Cc1cc(OCc2ccccc2)c(C)cc1CO
3,127 to 128,COC(=O)c1cc(C)cc(OC)c1C1=C(OC)C(=O)c2c(OC(C)=O)cccc2C1=O
4,216 to 219,O=C1COc2cc(F)c(N3N=C4CCCCC4C3=O)cc2N1Cc1ccccn1 (centres undefined)
5,68.5 to 70,COC(=O)Cc1ccc(OS(=O)(=O)C(F)(F)F)c(NC(C)=O)c1
6,133 to 134,COc1cc(OC)nc(Oc2cccc(F)c2C(=O)O)n1
7,106 to 108,CCCCN1CCC(n2nc(-c3c(-c4ccccc4)nn4ccccc34)ccc2=O)CC1
8,139 to 141,CC(=O)OCCn1cc(C(N)=O)c([N+](=O)[O-])n1
9,> 315,CCCc1c2nc(C(=O)Nc3ccccc3)cc(Cl)c2cc2c(=O)cc(C(=O)Nc3ccccc3)oc12
10,105 to 107,O=C1C=CC(O)(c2cc3ccccc3o2)c2ccccc21 (centres undefined)
11,> 300,O=C(O)c1cc2c(c(C(=O)O)c1)NCCS2
12,174 to 175,COc1ccc(-c2cc3ccccc3[nH]2)cc1NC(=S)Nc1cccc(CC(=O)O)c1
13,154 to 156,N#Cc1ccc(OS(N)(=O)=O)cc1
14,92 to 95,CCCCCCCCCCCCCCCCCCOc1ccc(OCCCOc2ccc(OCc3ccccc3)cc2)c(C(=O)O)c1
15,98 to 99,CCOC(=O)c1cc2cc(OCCCOC)cc(N(C)S(=O)(=O)c3ccccn3)c2[nH]1
16,142 to 143,O=C(OCCN1CCOCC1)c1cn2c(n1)COc1ccccc1-2
17,206,Nc1ncc(I)c(N)c1I
18,101 to 103,CCc1cccc2c3c([nH]c12)C(CC)(CC=N)OCC3 (centres undefined)
19,163 to 165,Cc1ccc(S(=O)(=O)OCCCCCn2c3c(c4ccccc4c2=O)C(=O)c2ccccc2-3)cc1
20,165 to 169,N#CCc1cccc2c(-c3ccc(Cl)cc3)onc12
21,114 to 116,COC(=O)CC(c1ccc(OC)c(OC)c1)N1C(=O)c2ccccc2C1=O (centres undefined)

row,Compound,melting point [°C]
1,O=C(Nc1ccc(C2=CCN(Cc3ccccc3)CC2)cc1)c1ccccc1-c1ccccc1,142
2,O=C(O)C1(c2ccccc2)CCN(CCC(c2ccccc2)(c2ccccc2)c2ccccn2)CC1,270 to 275
3,CCCCc1c2c(nc3ccccc13)-c1cc3c(c(=O)n1C2)COC(=O)CC3(O)CC (centres undefined),220 to 221
4,N#Cc1cccc(Br)c1CBr,90 to 93
5,COC(=O)CN1C(=O)C2=C(c3ccc(Cl)cc3C(c3ccccc3Cl)=NC2)C1C (centres undefined),221 to 223
6,CC12CCC(=O)C([N+](=O)[O-])=C1CCC1C2CCC2(C)C(OC3CC3)CCC12 (centres undefined),133 to 134
